Here are results for eleven compounds from article PMC8118430, “Utility of novel 2-furanones in synthesis of other heterocyclic compounds having anti-inflammatory activity with dual COX2/LOX inhibition” (Journal of Enzyme Inhibition and Medicinal Chemistry, 2021).

Structures are written as SMILES.

Data set [1] deals with T1, 15-LOX (Glycine max, UniProt P08170).
T1 construct: purchased Cayman Chemical 760700
T1 sequence (P08170 1-839): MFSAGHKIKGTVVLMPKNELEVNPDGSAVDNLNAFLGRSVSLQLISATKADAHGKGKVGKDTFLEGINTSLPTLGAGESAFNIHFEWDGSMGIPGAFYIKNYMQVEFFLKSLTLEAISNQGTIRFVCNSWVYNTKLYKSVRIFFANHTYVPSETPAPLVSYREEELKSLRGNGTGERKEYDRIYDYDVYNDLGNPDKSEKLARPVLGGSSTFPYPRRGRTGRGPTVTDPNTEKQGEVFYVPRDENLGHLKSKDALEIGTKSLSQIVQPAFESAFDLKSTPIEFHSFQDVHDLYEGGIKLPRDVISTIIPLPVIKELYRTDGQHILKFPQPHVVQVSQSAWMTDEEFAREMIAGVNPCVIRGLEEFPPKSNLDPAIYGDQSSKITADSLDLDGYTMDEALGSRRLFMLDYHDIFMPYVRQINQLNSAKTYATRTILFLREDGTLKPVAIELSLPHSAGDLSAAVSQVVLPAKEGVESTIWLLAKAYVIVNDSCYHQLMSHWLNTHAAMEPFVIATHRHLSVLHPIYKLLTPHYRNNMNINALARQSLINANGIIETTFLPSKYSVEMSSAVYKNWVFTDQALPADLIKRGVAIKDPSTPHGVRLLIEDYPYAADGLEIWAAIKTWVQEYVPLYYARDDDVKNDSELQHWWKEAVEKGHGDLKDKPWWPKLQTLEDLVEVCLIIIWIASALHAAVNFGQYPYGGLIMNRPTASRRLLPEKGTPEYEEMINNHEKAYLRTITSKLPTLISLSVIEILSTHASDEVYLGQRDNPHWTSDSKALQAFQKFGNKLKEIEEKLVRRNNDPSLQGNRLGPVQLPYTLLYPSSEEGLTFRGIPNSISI
The data set can be described thus: Lipoxygenase (15-LOX) inhibition assay (Cayman LOX inhibitor screening kit). In kind it is biochemical, soybean. Particulars: mean ± SD of three experiments. The protocol:
Briefly, in a 96-well plate, 10 µl of each test compound (dissolved in DMSO) or vehicle were pre-incubated with 90 µl of 15-LOX enzyme. The reaction was started by addition of 10 µl of substrate (AA) and the plate was shaken for at least 5 min. Then, 100 µl of chromogen supplied with the kit was added to each well to stop the enzymatic reaction and develop the colour. The absorbance was measured at 490 nm using microplate reader.
Therefore, the soybean LOX is most like the mammalian 15-LOX[59].

Data set [2] concerns the target T2, TNF-α (Homo sapiens, UniProt P01375).
T2 construct: purchased BPS Bioscience 79756
The data set can be described thus: TNFR2: TNF-α [biotinylated] inhibitor screening assay. To be noted: for IC50: mean ± SD of three experiments. It counts as binding. The procedure: The assay was performed in triplicates using TNFR2: TNF-α [biotinylated] […] First, TNFR2 is coated on a 96-well plate. Next, biotinylated TNF-α is incubated with TNFR2 on the plate. Finally, the plate was treated with streptavidin-HRP followed by addition of an HRP substrate to produce chemiluminescence, which can be measured using a chemiluminescence reader.

Data set [3] has as its target T3, COX-1 (Ovis aries, UniProt P05979).
T3 sequence (P05979 25-600): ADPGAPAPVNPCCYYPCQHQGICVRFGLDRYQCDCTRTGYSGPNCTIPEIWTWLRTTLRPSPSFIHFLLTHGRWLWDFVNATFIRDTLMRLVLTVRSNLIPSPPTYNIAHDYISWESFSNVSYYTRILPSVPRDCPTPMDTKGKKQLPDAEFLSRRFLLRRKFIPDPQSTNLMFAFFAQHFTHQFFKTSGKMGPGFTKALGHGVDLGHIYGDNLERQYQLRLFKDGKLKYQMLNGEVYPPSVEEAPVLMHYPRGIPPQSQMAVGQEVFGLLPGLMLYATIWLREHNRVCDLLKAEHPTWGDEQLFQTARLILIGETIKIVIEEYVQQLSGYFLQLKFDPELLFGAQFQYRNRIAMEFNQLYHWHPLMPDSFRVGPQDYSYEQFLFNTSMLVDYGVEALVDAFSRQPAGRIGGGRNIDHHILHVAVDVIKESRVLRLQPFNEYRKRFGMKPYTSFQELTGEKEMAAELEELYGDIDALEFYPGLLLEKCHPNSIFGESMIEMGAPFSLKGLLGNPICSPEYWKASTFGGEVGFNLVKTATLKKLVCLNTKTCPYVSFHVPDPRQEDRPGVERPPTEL
Put plainly: Cyclooxygenase COX-1 inhibition assay (Cayman COX inhibitor screening kit, EIA).
Protocol: (§1) Tested compounds were dissolved in DMSO. […] The COX inhibitor screening assay depends on direct measurement of the amount of PG2α produced in the COX reaction. […] Enzyme catalysis was terminated by addition of 50 µl 1 M HCl and 100 µl of the saturated stannous chloride solution. The PGs are quantified by enzyme immunoassay (EIA) at 410 nm.
(§2) Thus, the newly synthesised compounds were tested for their anti-inflammatory activity against isozymes COX-1 and COX-2, which were determined by the COX-catalysed transformation of AA into PGH2 that was reduced to PGF2α and detected by the EIA[53], as shown in Table 1.

Data set [4] concerns the target T4, COX-2 (Homo sapiens, UniProt P35354).
T4 sequence (P35354 18-604): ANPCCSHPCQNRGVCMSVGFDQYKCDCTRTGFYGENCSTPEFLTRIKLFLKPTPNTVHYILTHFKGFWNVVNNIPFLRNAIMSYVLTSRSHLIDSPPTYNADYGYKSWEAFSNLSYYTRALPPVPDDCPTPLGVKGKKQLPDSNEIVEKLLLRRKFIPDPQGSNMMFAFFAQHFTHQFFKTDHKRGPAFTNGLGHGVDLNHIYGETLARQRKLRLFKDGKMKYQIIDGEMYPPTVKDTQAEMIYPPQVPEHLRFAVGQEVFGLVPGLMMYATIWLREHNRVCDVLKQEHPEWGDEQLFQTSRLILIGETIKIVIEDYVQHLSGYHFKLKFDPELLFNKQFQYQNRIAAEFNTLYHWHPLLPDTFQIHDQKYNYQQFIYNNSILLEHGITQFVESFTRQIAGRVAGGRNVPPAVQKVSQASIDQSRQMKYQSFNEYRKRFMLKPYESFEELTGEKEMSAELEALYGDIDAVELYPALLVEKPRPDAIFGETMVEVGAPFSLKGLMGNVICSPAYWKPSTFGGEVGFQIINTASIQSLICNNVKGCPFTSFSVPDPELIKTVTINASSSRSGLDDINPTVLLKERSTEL
The data set can be described thus: Cyclooxygenase COX-2 inhibition assay (Cayman COX inhibitor screening kit, EIA). To be noted: for Selectivity indexes (SI): SI = IC50 COX-1/COX-2 ratios.
Protocol: as §1, §2

T2 sequence (P01375 77-233 limits assumed): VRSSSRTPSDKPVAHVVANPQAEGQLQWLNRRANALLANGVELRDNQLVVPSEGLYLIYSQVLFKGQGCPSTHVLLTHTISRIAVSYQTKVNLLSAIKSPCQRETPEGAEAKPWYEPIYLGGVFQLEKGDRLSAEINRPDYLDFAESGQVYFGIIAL

In the case of `O=C(CC(=Cc1ccccc1[N+](=O)[O-])c1n[nH]c(=S)o1)c1ccc(Cl)c(Cl)c1` [Compound 9a, 1-(3,4-Dichlorophenyl)-4-(2-nitrophenyl)-3-(2-thioxo-4,5-dihydro-1,3,4-oxadiazol-5-yl)but-3-en-1-one], the melting point (usually the temperature of the solid-liquid transition) was 214 to 216 °C. Half-maximal inhibition in data set [1] (IC50) was put at 2070 ± 150 nM. Also, in data set [2], the IC50 (in general, the concentration that inhibits the measured activity by half) was 5.57 ± 0.06 nM. In addition, the IC50 in data set [3] was found to be 9430 ± 120 nM. Also, in data set [4], the IC50 is 280 ± 10 nM and the “Selectivity indexes (SI)” value came out at 33.68.

For the compound `O=C1NC(c2ccc(Cl)c(Cl)c2)=CC1=Cc1cccc([N+](=O)[O-])c1` [Compound 3b, 5-(3,4-Dichlorophenyl)-3-(3-nitrobenzylidene)-1H-pyrrol-2-one], the melting point was more than 300 °C. The compound further registered an IC50 in data set [1] of 1870 ± 150 nM. Also, in data set [2], inhibition was half-maximal at 8.27 ± 0.12 nM (IC50). In data set [3], this compound came in with a 50% inhibitory concentration (IC50) of 6870 ± 120 nM. In data set [4], the IC50 stood at 390 ± 10 nM and the “Selectivity indexes (SI)” value is recorded as 17.62.

In the case of `NNC(=O)C(=Cc1ccccc1[N+](=O)[O-])CC(=O)c1ccc(Cl)c(Cl)c1` [Compound 6a, 4-(3,4-Dichlorophenyl)-2-(2-nitrobenzylidene)-4-oxo-butanehydrazide], the melting point was in the range of 164 to 166 °C. Moreover, half-maximal inhibition in data set [1] (IC50) was put at 2830 ± 60 nM. The same compound registered an IC50 in data set [2] of 5.87 ± 0.12 nM. In data set [3], the IC50 came out at 9670 ± 60 nM. In data set [4], the IC50 was 90 nM and the “Selectivity indexes (SI)” value turned out to be 107.44. For the same compound, the “COX-2 inhibition, in words (SAR discussion)” value in data set [4] (qualitative statement) was “high activity”.

Compound `CN(C)c1ccc(C=C2C=C(c3ccc(Cl)c(Cl)c3)N(C(=O)c3ccccc3)NC2=O)cc1` [Compound 8c, 2-Benzoyl-5-(4-dimethylaminobenzylidene)-3-(3,4-dichlorophenyl)-1H-pyridazin-6-one] registered a melting point of 229 to 231 °C. This compound yielded an IC50 in data set [1] of 3170 ± 60 nM. The compound also registered an IC50 in data set [2] of 2.9 ± 0.1 nM. In data set [2] (qualitative statement), the “TNF-α inhibition, in words (discussion)” value is listed as “lowest IC50 value”. Moreover, 13070 ± 120 nM corresponded to half-maximal inhibition in data set [3] (IC50). Besides, in data set [4], the IC50 was determined as 40 nM and the “Selectivity indexes (SI)” value is on record as 326.75.

On to `CN(C)c1ccc(C=C2C=C(c3ccc(Cl)c(Cl)c3)NC2=O)cc1` [Compound 3c, 5-(3,4-Dichlorophenyl)-3-(4-dimethylaminobenzylidene)-1H-pyrrol-2-one], for which the melting point was more than 300 °C. In data set [1], half-maximal inhibition (IC50) required 2210 ± 980 nM. The same compound had an IC50 in data set [2] of 6.77 ± 0.12 nM. In data set [3], this compound returned an IC50 of 5930 ± 150 nM. In addition, in data set [4], the IC50 is 340 ± 10 nM and the “Selectivity indexes (SI)” value is given as 17.44.

With `O=C1NN(c2ccccc2)C(c2ccc(Cl)c(Cl)c2)=CC1=Cc1cccc([N+](=O)[O-])c1` [Compound 5b, 6-(3,4-Dichlorophenyl)-4-(3-nitrobenzylidene)-1-phenyl-1,4-dihydropyridazin-3(2H)-one], the melting point was more than 300 °C. In data set [1], the IC50 was found to be 2430 ± 120 nM. Besides, in data set [2], the IC50 was 3.27 ± 0.12 nM. The IC50 in data set [3] is 13000 ± 100 nM. Further, in data set [4], half-maximal inhibition (IC50) was put at 40 nM and the “Selectivity indexes (SI)” value was 325.00.

`CN(C)c1ccc(C=C(CC(=O)c2ccc(Cl)c(Cl)c2)c2n[nH]c(=S)o2)cc1` [Compound 9c, 1-(3,4-Dichlorophenyl)-4-(4-dimethylaminophenyl)-3-(2-thioxo-4,5-dihydro-1,3,4-oxadiazol-5-yl)but-3-en-1-one] registered a melting point of 162 to 164 °C. The IC50 in data set [1] came to 2000 ± 170 nM. In data set [2], this compound yielded an IC50 of 6.27 ± 0.15 nM. In data set [3], the 50% inhibitory concentration (IC50) came out at 8930 ± 60 nM. In addition, in data set [4], the IC50 came to 220 ± 10 nM and the “Selectivity indexes (SI)” value was 40.59.

The compound `O=C1NN(c2ccccc2)C(c2ccc(Cl)c(Cl)c2)=CC1=Cc1ccccc1[N+](=O)[O-]` [Compound 5a, 6-(3,4-Dichlorophenyl)-4-(2-nitrobenzylidene)-1-phenyl-1,4-dihydropyridazin-3(2H)-one] showed a melting point of more than 300 °C. Inhibition in data set [1] was half-maximal at 2700 ± 950 nM (IC50). For the same compound, in data set [2], the midpoint of inhibition, the IC50, lay at 4.93 ± 0.06 nM. In data set [3], this compound gave an IC50 of 12730 ± 120 nM. In data set [4], the IC50 was 60 nM and the “Selectivity indexes (SI)” value is given as 212.17.

The compound `O=C1OC(c2ccc(Cl)c(Cl)c2)=CC1=Cc1ccccc1[N+](=O)[O-]` [Compound 2a, 5-(3,4-Dichlorophenyl)3-(2-nitrobenzylidene)-furan-2-one] showed a melting point of 259 to 261 °C. This compound also gave an IC50 in data set [1] of 5100 ± 100 nM. For the same compound, the IC50 in data set [2] came to 7.47 ± 0.12 nM. Also, the IC50 in data set [3] was determined as 4530 ± 120 nM. In data set [4], it took 350 ± 10 nM to reach half-maximal inhibition (IC50) and the “Selectivity indexes (SI)” value worked out at 12.94.

`CN(C)c1ccc(C=C(CC(=O)c2ccc(Cl)c(Cl)c2)C(=O)NN)cc1` [Compound 6c, 4-(3,4-Dichlorophenyl)-2-(4-dimethylaminobenzylidene)-4-oxo-butanehydrazide] returned a melting point of 154 to 156 °C. Moreover, half-maximal inhibition in data set [1] (IC50) required 3170 ± 60 nM. In data set [2], this compound had an IC50 of 6.17 ± 0.06 nM. In data set [3], the IC50 worked out at 8830 ± 60 nM. Also, in data set [4], the IC50 turned out to be 100 ± 10 nM and the “Selectivity indexes (SI)” value is 88.30.

On to `O=C1OC(c2ccc(Cl)c(Cl)c2)=CC1=Cc1cccc([N+](=O)[O-])c1` [Compound 2b, 5-(3,4-Dichlorophenyl)3-(3-nitrobenzylidene)-furan-2-one], for which the melting point was in the range of 230 to 232 °C. Besides, in data set [1], the IC50 was found to be 4400 ± 100 nM. In addition, half-maximal inhibition in data set [2] (IC50) was put at 7.77 ± 1.68 nM. In data set [3], this compound came in with an IC50 of 6970 ± 120 nM. In addition, in data set [4], half-maximal inhibition (IC50) required 280 ± 10 nM and the “Selectivity indexes (SI)” value worked out at 24.89.
